Data set [1] concerns the target T1, PKL (Homo sapiens, UniProt P30613). The data set is described as follows: Surface plasmon resonance, PKL. The conditions noted are these: for koff: read-out: k off SPR (PKL); for kon: read-out: k on SPR (PKL). (In general: Surface plasmon resonance follows binding to a sensor surface in real time, without labels.)
Procedure: The surface was washed with 10 mM NaOH, 1M NaCl followed by immobilization of protein before subsequent deactivation by 1 M ethanolamine. Immobilization levels were typically 12000-16000 RU. The reference spot was treated as described, omitting the injection of PKL. Compound concentration series was injected over the immobilized protein in increasing concentrations using multi cycle (MCK) or single cycle kinetics (SCK) in running buffer (10 mM HEPES, 150 mM NaCl, 0.05% Tween20, 0.3% DMSO, pH 7.4). A 1:1 Langmuir interaction model is fitted to the experimental traces, enabling determination of kon, koff and Kd.
Data set [2] addresses T2, PKM2 (Homo sapiens, UniProt P14618). In words: Recombinant PKM2 activity assay (Kinase-Glo MAX). The class given is biochemical. Further details: made in house. To be noted: for PKM2 E max: recombinant PKM2; for EC50: recombinant PKM2 10 nM, 15 min pre-incubation, PEP 0.1 mM, ADP 0.2 mM. The protocol:
As these compounds were binding to a known allosteric site on PK, the effects of ligands I–IV on the enzymatic activities of PKL and PKM2 were determined (Figure S2). The two isozymes were incubated with increasing concentrations of compounds before the addition of substrates PEP and adenosine diphosphate (ADP), and the reactions were monitored using a Kinase‐Glo MAX assay.
Figure S2. Effects of ligands I-IV on recombinant PK activities. PKL or PKM2 (10 nM) were pre-incubated with the compounds (0-100 µM) for 15 min following the addition of PEP (0.1 mM) and ADP (0.2 mM). The reactions were terminated by the addition of Kinase Glo-MAX reagent after 10 min, and the luminescence from each reaction was quantified using a plate reader. The activity values are expressed as a percentage of PK activity of the DMSO control. The potencies were calculated by best fit of the Hill equation to the luminescence data.^[2] (A) PKL titrations. (B) PKM2 titrations. Error bars represent the ±SE of replicates (n = 3).

Data set [3] has as its target T1, PKL. In words: Recombinant PKL activity assay (Kinase-Glo MAX). The class given is biochemical. The conditions noted are these: for EC50: recombinant PKL 10 nM, 15 min pre-incubation, PEP 0.1 mM, ADP 0.2 mM; for PKL E max: recombinant PKL, above 100% activation, below 100% inhibition. On the set-up: co-crystallisation of full-length PKL (including the B-domain); 8xHis (TEV-cleavable) (N, cleaved yes); made in house; host or cells: E. coli T7 Express (NEB), pExp-NHis plasmid. The protocol:
The two isozymes were incubated with increasing concentrations of compounds before the addition of substrates PEP and adenosine diphosphate (ADP), and the reactions were monitored using a Kinase‐Glo MAX assay.
Figure S2. […] The reactions were terminated by the addition of Kinase Glo-MAX reagent after 10 min, and the luminescence from each reaction was quantified using a plate reader. The activity values are expressed as a percentage of PK activity of the DMSO control. The potencies were calculated by best fit of the Hill equation to the luminescence data.^[2] (A) PKL titrations. (B) PKM2 titrations. Error bars represent the ±SE of replicates (n = 3).
The reaction mixture contained 0.2 mM ADP, 0.1 mM PEP, 5 nM PKL, 1% DMSO, and test compounds at concentrations ranging from 0 to 1 mM across 12 titration points. Prior to substrate addition, PKL and test compounds were pre-incubated for 15 minutes.
After the reaction, 5 µL of Kinase-Glo Max reagent was added to each well. […] For each data set, luminescence from the DMSO control was set as 100% activity, and luminescence from the protein blank (no PKL) as 0% activity. Percentage activity (E%) was calculated using the equation: […]
Titration data was fitted to the Hill equation in Origin to determine EC₅₀ values.
Background: Kinase-Glo measures the ATP left after a reaction by luminescence.

Data set [4] addresses T1, PKL. The data set is described as follows: HepG2 PKM2 KO cell lysate PKL activity assay. To be noted: HepG2 PKM2 KO cells, 48 h, mean ± SE n=3.
Procedure: These predominantly express PKL.
HepG2 PKM2 KO cells (Synthego) were plated in 6 well plates at cell densities of 2 x 10^5 cells/well and incubated for 24 h at 37 °C and 5% CO2. Compounds were added to the cells in different concentrations (0.1, 1, 10 µM) and the cells were further incubated for 48 h. The control cells received DMSO as vehicle.
Cells were washed with PBS, lysed on ice with 200 µL/well PK assay buffer. […] Pyruvate kinase (PK) activity of the cell lysates (10 µg total protein) was analyzed by using the PK assay kit from abcam (ab83432) according to manufacturer´s instructions. The PKL activity in the cell lysates treated with the compounds was expressed as a percentage of the PK activity in the vehicle.
In data set [5] the target is T2, PKM2. In words: Surface plasmon resonance, PKM2. The conditions noted are these: for K D (SPR, PKM2): 20 °C.
A short description of data set [6]: Solubility. The class given is physicochemical.
Data set [7] has as its target PKLwt (Homo sapiens, UniProt P30613). In words: Fluorescence indicator displacement (FID) competition assay.
Procedure: Additionally, we performed fluorescence competition assays with these competitors against IV, using recombinant PKLwt (Figure 6b). […] A combined 2x PKL-tracer IV solution was prepared in Tris-HCl buffer containing 1% DMSO, with final concentrations of 0.2 µM PKL and 0.1 µM tracer IV.
Data set [8] concerns the target PKLNluc (Homo sapiens, UniProt P30613). The data set is described as follows: Live-cell NanoBRET assay in HEK293 cells. Further details: host or cells: HEK293, transient transfection. The class given is cell-based. To be noted: 20 nM tracer IV. The method, then:
To investigate the intracellular interaction of tracer IV with PKLNluc, we prepared a mammalian expression construct, fusing Nluc to the N‐terminus of PKL. […] As a negative control for NanoBRET experiments, a construct expressing Nluc alone (without PKL) was also prepared.
Additionally, cell viability assays were conducted on cells transfected with either PKLNluc or Nluc plasmids and incubated with tracer IV (Figure S4b,c).
HEK293 cells were passed one day before transfection. The concentration of cells was adjusted to 2x10^5 cells/ml in Opti-MEM™ without phenol red (Invitrogen) supplemented with 1% FBS (Hyclone). Cells (4x10^6) were reversed transfected with 1 µg of PKLNluc plasmid or 1 µg Nluc plasmid and 9 µg of carrier DNA (Promega) using 30 µL of Fugene HD transfection reagent (Promega). […] Work solutions (100x) of tracer IV were prepared from DMSO stocks and further diluted to 20x concentrations with Tracer buffer (Promega). Twenty-five hours after transfection, the cells were treated with 5 µL/well of each of 20x concentrations of the tracer (final concentrations in the assay were in the range 0.001-1 µM, depending on the experiment). Thereafter, 10 µL of 10x solutions of competitors (diluted in Opti-MEM™ medium from stocks of 100x prepared in DMSO) were added to some sets of cells, while the other set received only Opti-MEM™ containing 1% DMSO. The cells were incubated for 2 h at 37°C (5% CO2). […] For each sample well, BRET ratios were calculated using the following formula:
BRET ratio mBU= AcceptorSDonorS-AcceptorNTDonorNT
Where AcceptorS is the luminescence intensity of the sample well at 550 nm, DonorS is the luminescence of the sample well at 450 nm, and AcceptorNT and DonorNT are the luminescence of the no-tracer control at 550 nm and 450 nm respectively.
(In general: Bioluminescence resonance energy transfer reports proximity on the nanometre scale.)

[9] abbreviates: K D SPR (PKL), 20 °C, mean ± SE n=3.

Marks after values point to notes of the source that are not given here.

From article PMC12518693, “Potent Fluorescent Probe for Target‐Engagement Studies of Allosteric Pyruvate Kinase Modulators” (Angewandte Chemie (International Ed. in English), 2025) come the findings set out here.

T1 sequence (P30613 1-543 isoform P30613-2): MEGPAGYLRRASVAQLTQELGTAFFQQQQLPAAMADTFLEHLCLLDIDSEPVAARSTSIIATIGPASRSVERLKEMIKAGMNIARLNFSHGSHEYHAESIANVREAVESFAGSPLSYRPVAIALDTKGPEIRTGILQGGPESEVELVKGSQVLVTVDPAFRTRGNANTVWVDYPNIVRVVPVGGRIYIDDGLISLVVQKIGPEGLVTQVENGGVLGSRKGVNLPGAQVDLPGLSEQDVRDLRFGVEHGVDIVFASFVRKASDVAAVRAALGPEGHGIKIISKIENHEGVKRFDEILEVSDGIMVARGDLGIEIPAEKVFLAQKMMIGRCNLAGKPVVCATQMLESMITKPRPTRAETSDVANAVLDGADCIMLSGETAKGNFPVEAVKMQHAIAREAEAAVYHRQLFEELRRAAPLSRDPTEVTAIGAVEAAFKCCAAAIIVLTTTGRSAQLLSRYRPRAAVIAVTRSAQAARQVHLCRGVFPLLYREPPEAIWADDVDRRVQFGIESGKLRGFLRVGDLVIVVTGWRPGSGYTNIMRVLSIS
T2 sequence (P14618 whole entry): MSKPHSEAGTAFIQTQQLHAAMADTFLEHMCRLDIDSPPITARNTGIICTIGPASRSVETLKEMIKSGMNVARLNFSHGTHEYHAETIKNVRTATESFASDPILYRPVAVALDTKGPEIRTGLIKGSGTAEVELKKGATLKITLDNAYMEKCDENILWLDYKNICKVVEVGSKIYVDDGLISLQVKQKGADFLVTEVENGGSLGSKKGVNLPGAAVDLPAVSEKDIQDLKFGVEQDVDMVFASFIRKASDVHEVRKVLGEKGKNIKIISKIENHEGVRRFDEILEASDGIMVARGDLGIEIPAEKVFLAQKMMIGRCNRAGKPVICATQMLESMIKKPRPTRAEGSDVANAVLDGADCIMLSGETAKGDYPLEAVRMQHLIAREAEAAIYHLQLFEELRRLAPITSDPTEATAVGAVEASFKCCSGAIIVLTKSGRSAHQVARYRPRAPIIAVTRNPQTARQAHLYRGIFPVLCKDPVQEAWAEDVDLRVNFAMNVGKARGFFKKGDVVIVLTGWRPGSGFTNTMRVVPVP
Chain of PKLwt (P30613 1-543 isoform P30613-2): as the sequence (P30613 1-543 isoform P30613-2) above
Chain of PKLNluc (P30613 1-543 isoform P30613-2): as above

Turning to `O=c1c2ccc(S(=O)(=O)c3ccccc3)cc2cnn1Cc1ccccc1` [Compound I, 2-Benzyl-6-(phenylsulfonyl)phthalazin-1(2H)-one, reference compound], the Kd in data set [1] (setting [9]) worked out at 133 ± 8 nM. In addition, in data set [1], the koff is 0.00533 s⁻¹ and the kon was 41200 M⁻¹ s⁻¹. Besides, in data set [2], the “PKM2 E max” value is 596 % of vehicle and the EC50 came out at 25 nM. In addition, in data set [3], the EC50 was determined as 15 nM and the “PKL E max” value stood at 162 % vehicle. In addition, in data set [4], the “PKL activities (% of vehicle) 0.1 µM” value is given as 115 ± 2 % of vehicle, the “PKL activities (% of vehicle) 1 µM” value is recorded as 189 ± 3 % of vehicle and the “PKL activities (% of vehicle) 10 µM” value was 330 ± 3 % of vehicle. The same compound yielded a Kd in data set [5] of 33 ± 1 nM. For the same compound, in data set [5] (read-out: k off SPR (PKM2)), the koff was below 0.00055 s⁻¹. The kon in data set [5] (read-out: k on SPR (PKM2)) is 4500 M⁻¹ s⁻¹.
In turn, `CN(C)c1ccc(S(=O)(=O)c2ccc3c(=O)n(Cc4ccccc4)ncc3c2)c2nonc12` [Compound II, 2-Benzyl-6-((7-(dimethylamino)benzo[c][1,2,5]oxadiazol-4-yl)sulfonyl)phthalazin-1(2H)-one] registered a Kd in data set [1] (setting [9]) of 36200 ± 289 nM. Also, the “weaker PKL affinity relative to compound I” value in data set [1] (SPR K D ratio) was 250 fold. In addition, in data set [1], the koff was 0.00833 s⁻¹ and the kon is 167 M⁻¹ s⁻¹. The “PKM2 E max” value in data set [2] was 572 % of vehicle. In addition, the solubility result in data set [6] is on record as “poor”. In addition, in data set [3], the EC50 worked out at 700 nM and the “PKL E max” value came out at 120 % vehicle. In data set [4], the “PKL activities (% of vehicle) 0.1 µM” value was 112 ± 1 % of vehicle, the “PKL activities (% of vehicle) 1 µM” value was 126 ± 1 % of vehicle and the “PKL activities (% of vehicle) 10 µM” value is listed as 133 ± 6 % of vehicle. Besides, in data set [5], the Kd was above 100000 nM and the “K D (SPR, PKM2)” value was “no detectable binding”.
Regarding `CN(C)c1ccc(S(=O)(=O)c2ccc3c(=O)n(CC(C)(C)C)ncc3c2)c2nonc12` [Compound III, 6-((7-(Dimethylamino)benzo[c][1,2,5]oxadiazol-4-yl)sulfonyl)-2-neopentylphthalazin-1(2H)-one], in data set [1] (20 °C, mean ± SE n=3), the “K D SPR (PKL)” value is on record as “no binding”. This compound also gave a Kd in data set [1] (setting [9]) above 100000 nM. In addition, in data set [2], the “PKM2 E max” value was 323 % of vehicle and the EC50 was above 10000 nM. For the same compound, in data set [6], the solubility entry is listed as “poor”. For the same compound, in data set [3] (>50 µM), the “effect on PKL at higher concentrations” value is reported as “weak inhibition”. Also, in data set [3], the 50% effective concentration (EC50) turned out to be 86000 nM and the “PKL E max” value is given as 50 ^a) % vehicle. Further, in data set [5], the Kd is above 100000 nM and the “K D (SPR, PKM2)” value is recorded as “no detectable binding”.
As for `Nc1cccc(S(=O)(=O)N2CCCN(S(=O)(=O)c3ccc4c(c3)OCCO4)CC2)c1` [DASA-58, reference compound], the Kd in data set [1] (K D (SPR, PKL), 20 °C, recombinant PKL) stood at 170 nM; in data set [7], 179 nM; in data set [8] (Figure 6, read-out: K D (cell), Cheng–Prusoff corrected), 245 nM. Further, the EC50 amounted to 394 nM in data set [7] and 512 nM in data set [8] (2 h 37 °C, live HEK293, Figure 6a, read-out: EC50 displacement of tracer IV).

Usually EC50 stands for the concentration that produces a half-maximal response.
